Experimental data from PMC7442609 (ACS chemical biology, 2020).
pEC50: −log10 of the molar value. Where two headings read alike, the source gives them in different places. Peptide text beside a SMILES is read from it. * marks the point of attachment. Cbz = O=C(OCc1ccccc1)*

Tests used:
[1] = tested on: RAW-Difluo mLC3 cells; experiment: RAW-Difluo mLC3 autophagy reporter assay; format: cell-based, murine; conditions: 16 hours
[2] = tested on: PINK1; format: cell-based, murine; conditions: 5 μM, 16 hr, western blot
[3] = tested on: Parkin; format: cell-based, murine; conditions: 5 μM, 16 hr, western blot
[4] = tested on: FoxM1; format: cell-based, murine; conditions: 5 μM, 16 hours, western blot
[5] = molecular target: 20S proteasome (Homo sapiens, UniProt P28072+P28074+Q99436); experiment: Proteasome-Glo assay on purified 20S proteasome; format: biochemical; conditions: 1 hr; for IC50 caspase-like activity / IC50 chymotrypsin-like activity / IC50 trypsin-like activity: purified 20S proteasome
[6] = tested on: Mtb H37Rv; experiment: Resazurin microtiter assay; format: cell-based, Mycobacterium tuberculosis
[7] = molecular target: T1, proteasomes (Mus musculus, UniProt O55234+P70195+Q60692); experiment: Ub-R-GFP reporter assay of proteasomal activity in cells; format: cell-based, murine
T1 sequence (O55234 60-264): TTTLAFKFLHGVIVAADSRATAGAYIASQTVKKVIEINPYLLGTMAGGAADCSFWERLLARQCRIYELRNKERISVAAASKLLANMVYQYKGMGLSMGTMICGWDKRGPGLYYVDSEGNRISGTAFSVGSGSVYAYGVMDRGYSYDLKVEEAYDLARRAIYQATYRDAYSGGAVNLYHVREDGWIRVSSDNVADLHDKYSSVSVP
T1 sequence (Q60692 1-238): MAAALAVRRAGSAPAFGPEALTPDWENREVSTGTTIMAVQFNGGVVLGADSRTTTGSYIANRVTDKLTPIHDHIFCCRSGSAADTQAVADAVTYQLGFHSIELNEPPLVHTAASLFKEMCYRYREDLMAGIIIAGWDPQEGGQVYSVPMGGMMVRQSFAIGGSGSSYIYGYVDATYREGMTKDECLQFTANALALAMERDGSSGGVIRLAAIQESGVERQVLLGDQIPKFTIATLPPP
T1 sequence (P70195 44-277): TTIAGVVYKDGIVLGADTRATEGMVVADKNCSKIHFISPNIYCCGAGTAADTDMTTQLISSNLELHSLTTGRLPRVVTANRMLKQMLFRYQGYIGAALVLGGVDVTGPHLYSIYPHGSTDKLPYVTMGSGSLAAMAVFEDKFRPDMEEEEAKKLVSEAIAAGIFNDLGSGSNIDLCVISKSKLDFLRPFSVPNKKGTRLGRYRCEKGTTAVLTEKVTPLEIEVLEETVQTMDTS

[8] = tested on: RFP-LC3-THP-1 cells infected with Mtb; format: cell-based, human; conditions: 16 hr at 10 μM, TSR 2.5 μM
[9] = tested on: luxBCADE-expressing H37Rv Mtb in THP-1 cells; format: cell-based, Mycobacterium tuberculosis; conditions: for effect of WRT on anti-Mtb activity in macrophages: THP-1 cells, + WRT (15 μM), 7 days
[10] = tested on: THP-1 cells; format: cell-based, human; conditions: uninfected THP-1 cells
[11] = tested on: EIF-2α; format: cell-based, murine; conditions: 5 μM, 16 hours, western blot

Compound | induction of autophagy (in words) [1] | FoxM1 protein levels [4] | autophagosomes (RFP-LC3 puncta) per Mtb infected cell [8] | inhibition of intracellular Mtb growth [9] | effect of WRT on anti-Mtb activity in macrophages [9] | also measured
C=C(NC(=O)C(=C)NC(=O)c1ccc2c(n1)-c1coc(n1)C(=C)NC(=O)C(=C)NC(=O)c1nc(oc1C)C(=C)NC(=O)C(C(C)(C)O)NC(=O)C(=C)NC(=O)c1nc(oc1C)/C(=C/C)NC(=O)C(C(C)O)NC(=O)c1csc-2n1)C(N)=O (stereo not drawn) [BER, berninamycin] | also induced autophagy |  |  |  |  | 
C=C(NC(=O)C(=C)NC(=O)c1csc(-c2ccc3c(n2)-c2csc(n2)-c2csc(n2)C2C(C)CC(O)N2C(=O)C(Cc2ccc(O)cc2)N=C(O)C2CSC(=N2)C(Cc2ccccc2)N=C(O)c2csc(n2)C(CC(N)=O)N=C(O)c2nc-3oc2C)n1)C(=O)O (stereo not drawn) [GE, GE37468] | induced autophagy at concentrations comparable to TSR |  |  |  |  | 
CC(C)C[C@@H](C=O)NC(=O)[C@H](CC(C)C)NC(=O)[C@H](CC(C)C)NC(=O)OCc1ccccc1 [MG-132] (Cbz-Leu-Leu-Leu-aldehyde) |  | significant decrease in FoxM1 protein levels |  |  |  | PINK1 expression level [2]: little to no increase over basal levels; Parkin expression level [3]: little to no increase over basal levels
C=C(NC(=O)c1csc(-c2nc3c(cc2O)-c2nc(cs2)C(=O)NC(C(C)O)C(=O)N/C(=C\C)c2nc(cs2)C(=O)NC2CC(O)C(=O)OCc4cccc5[nH]c(c(C)c45)C(=O)SCC(NC(=O)c4csc2n4)c2nc-3cs2)n1)C(N)=O (stereo not drawn) [NOS, nosiheptide] | induced autophagy at concentrations comparable to TSR | no effect on FoxM1 levels | significantly increased the number of RFP-LC3 puncta per cell | potent inhibitory effects on intracellular Mtb growth | no significant effect on their anti-Mtb activity in macrophages | direct inhibition of reconstituted 20S proteasome [5]: directly inhibited the proteasome; IC50 caspase-like activity [5]: low micromolar; IC50 chymotrypsin-like activity [5]: low micromolar; IC50 trypsin-like activity [5]: low micromolar; activity against Mtb in vitro (REMA, in words) ([6]; Mtb H37Rv in culture, 4 days): active against Mtb in vitro at IC50s comparable to kanamycin; pEC50 [7]: 6.42
C=C(NC(=O)C(=C)NC(=O)c1csc(C2=N[C@@H]3c4csc(n4)[C@H]4NC(=O)c5csc(n5)[C@H]([C@](C)(O)[C@@H](C)O)NC(=O)[C@H]5CSC(=N5)/C(=C/C)NC(=O)[C@H]([C@@H](C)O)NC(=O)c5csc(n5)[C@]3(CC2)NC(=O)[C@H](C)NC(=O)C(=C)NC(=O)[C@H](C)NC(=O)[C@H]([C@@H](C)CC)N[C@@H]2C=Cc3c([C@H](C)O)cc(nc3[C@H]2O)C(=O)O[C@@H]4C)n1)C(N)=O [TSR, thiostrepton] | potently induced autophagy | significant decrease in FoxM1 protein levels | significantly increased the number of RFP-LC3 puncta per cell | potent inhibitory effects on intracellular Mtb growth | no significant effect on their anti-Mtb activity in macrophages | direct inhibition of reconstituted 20S proteasome [5]: directly inhibited the proteasome; IC50 caspase-like activity [5]: substantially less active; IC50 chymotrypsin-like activity [5]: sub-micromolar; IC50 trypsin-like activity [5]: sub-micromolar; activity against Mtb in vitro (REMA, in words) [6]: active against Mtb in vitro at IC50s comparable to kanamycin; pEC50 [7]: 5.84
COC[C@H]1OC(=O)c2coc3c2[C@@]1(C)C1=C(C3=O)[C@@H]2CCC(=O)[C@@]2(C)C[C@H]1OC(C)=O [WRT, wortmannin, reference compound] |  |  | < 5 |  |  | effect on thiopeptide-induced autophagy [10]: abrogates thiopeptide-induced autophagy
thiocillin III [TCIII] | also induced autophagy |  | significantly increased the number of RFP-LC3 puncta per cell | potent inhibitory effects on intracellular Mtb growth | no significant effect on their anti-Mtb activity in macrophages | pEC50 ([1]; read-out: EC50 induction of autophagy (RFP-LC3 puncta per cell)): 7.05; activity against Mtb in vitro (REMA, in words) ([6]; Mtb H37Rv in culture, 4 days): active against Mtb in vitro at IC50s comparable to kanamycin; EIF-2α phosphorylation [11]: led to EIF-2α phosphorylation
